Test: gradient 5% acetonitrile 3 min, to 50% in 2 min, to 85% in 15 min, held 3 min, 100 µL/min
Settings: column: Zorbax Extend-C18 2.1 x 50 mm; eluents: water / acetonitrile, 0.1% formic acid
In short: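 A Zorbax Extend-C18 column (2.1 × 50 mm, 1.8 μm) run at 100 μL/min with water and acetonitrile, both containing 0.1% formic acid, separated mixtures of ~100 pure standards. The HPLC was coupled to a quadrupole time-of-flight mass spectrometer operated in positive and negative ionization mode, with dead and dwell volumes of 40 μL and 900 μL. Each retention time was taken from a computationally picked adduct peak that was then manually inspected.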

SMILES | RP-LC retention time
Cc1ccc(Nc2c(-c3ccc(Cl)cc3)nc3cnccn23)c(C)c1 | 1080 s
CSc1cccc(NC(=O)NCCc2cn(C)c3ncccc23)c1 | 716 s
O=c1n(CC2CC2)nc2n1CCN(S(=O)(=O)c1ccccc1C(F)(F)F)C2 | 803 s
O=C(NCCn1c(=O)n(Cc2ccccc2)c2cccnc21)c1ccccn1 | 719 s
O=C(CC(F)(F)F)N1CCC(c2noc(-c3ccccc3)n2)C1 (stereo not given) | 870 s
O=C(c1cc(Cl)ccc1F)N1CCN(C(=O)c2nnn3c2COC(c2ccccc2)C3)CC1 (stereo not given) | 909 s
CC(=O)NCC(=O)N1CCCn2ccnc2C1C1CCCC1 (stereo not given) | 625 s
CCOC(=O)C1=C(CN2CCN(c3ccccc3F)CC2)NC(=O)NC1c1cccc(OC)c1OC (stereo not given) | 730 s
CN(C)C(=O)c1ccc2c(c1)nc(CN1CCN(C(=O)COc3ccc(Cl)cc3)CC1)n2C | 640 s
Cc1noc([C@@H]2CN(Cc3ccc(F)cc3Cl)C[C@H]2CO)n1 | 600 s
O=C(NCCCc1ccccc1)c1ccc2c(c1)N(CC(=O)N1CCCC1)C(=O)CO2 | 706 s
Cc1ccc(NC(=O)CCc2nc(CSc3nnc(-c4ccccc4)o3)no2)cc1Cl | 1030 s
COc1cccc(C(=O)CSc2ccc(NC(=O)c3cccs3)nn2)c1 | 846 s
CCOC(=O)CCNC(=O)N1CCc2c([nH]c3ccccc23)C1c1ccccc1F (stereo not given) | 941 s
Cc1c2c(nn1-c1ccc(SCc3ccccc3F)nn1)CCC2 | 1270 s
CC(C)Oc1ccc(-c2noc(CN3C(=O)COc4cc(Cl)ccc43)n2)cc1 | 1190 s
Cc1cc(C)cc(C(=O)NC2(c3nc(-c4ccccc4)no3)CCCCC2)c1 | 1280 s
O=C(c1ccc(C(F)(F)F)cc1)N1CC2CN(S(=O)(=O)c3ccccc3)CC(C1)O2 | 881 s
O=C1C(c2cccs2)N(Cc2ccco2)C(=O)CN1c1ccccc1 (stereo not given) | 734 s
CN1C(=O)Cc2ccccc2C1C(=O)NCc1ccccc1F (stereo not given) | 713 s
CCc1noc([C@@H]2CC(F)(F)CN2C(=O)c2cnc[nH]2)n1 | 604 s
CCSc1nnc(-c2nn(C)c3c2CN(C(=O)c2c(F)cccc2F)CC3)n1C | 746 s
O=C(C1CCCO1)N1CCN(c2ccc(-n3cccn3)nn2)CC1 (stereo not given) | 586 s

SMILES | RP-LC retention time
CN1CCCn2cc(S(=O)(=O)Nc3ccc(F)cc3Cl)cc2C1=O | 696 s
O=C(NCc1cc(F)ccc1F)C1CCN(c2nnc(-c3ccccc3)o2)CC1 | 819 s
CCc1cccc(C)c1Nc1c(-c2ccc(SC)cc2)nc2cnccn12 | 1070 s
Cc1ccc(-c2noc(-c3ccc(N4CCN(c5ncccn5)CC4)nc3)n2)cc1 | 1280 s
CCC1(O)CCC12CCN(C(=O)c1cccs1)CC2 (stereo not given) | 718 s
CCc1nc(-n2cccc2)sc1C(=O)Nc1cccc(F)c1 | 1170 s
C[C@H]1C/C=C/[C@H]2[C@@H]3O[C@]3(C)[C@@H](C)[C@H]3[C@H](Cc4ccccc4)NC(=O)[C@]32OC(=O)O/C=C/[C@](C)(O)C1=O | 870 s
Cn1cnc(S(=O)(=O)N2CC(Oc3ccccc3-c3nc(C4CC4)no3)C2)c1 | 794 s
Cc1ccnc(N2CCC(C(=O)NC3CCCC3)CC2)n1 | 628 s
CC(C)Cn1c(=O)c2cc(C(=O)NC(C)c3ccccc3)nn2c2ccccc21 (stereo not given) | 1090 s
Cc1cc(N2CCN(C(=O)Nc3ccccc3F)CC2)nc(N2CCOCC2)n1 | 617 s
O=c1n(CCOc2ccc(F)cc2)nc2c(S(=O)(=O)N3CCCCC3)cccn12 | 894 s
CCOc1ccccc1NC(=O)N1CCc2cn(C)c3cccc(c23)C1 | 834 s
COC(=O)c1ccc(C(=O)Nc2nnc(-c3ccc(Br)o3)o2)cc1 | 745 s
CC1(C(=O)NCc2ccccc2)CCN(S(=O)(=O)c2cccc(C#N)c2)CC1 | 862 s
CCn1c(=O)c(C)nc2cc(-c3noc(/C=C/c4ccc(C)cc4)n3)ccc21 | 1170 s
CCOC(=O)CNC(=O)N(C)CCc1noc(-c2ccc(F)cc2)n1 | 742 s
Cc1cc(N2CCCCC2)n2nc(CN3CCN(C(C)C)CC3)nc2n1 | 574 s
COc1ccc(N2CCN(C(=O)c3cc(S(=O)(=O)N4CCC(C)CC4)cn3C)CC2)cc1 | 923 s
O=C(NCc1ccc(Cl)cc1)C(=O)NCC1(c2cccs2)CCCC1 | 1120 s
CN(C)c1ccc(CNC(=O)CN2CCN(C(=O)Nc3ccc(Br)cc3)CC2=O)cc1 | 611 s
O=S(=O)(CCOc1ccc(F)cc1)Nc1cccnc1 | 627 s
Cc1nn(-c2ccc(C(=O)N3CCN(C(=O)c4ccco4)CC3)cc2)c2c1C(=O)CCC2 | 664 s

SMILES | RP-LC retention time
Cc1cccc(NC(=O)C2CCN(S(C)(=O)=O)c3cc(Cl)ccc3O2)c1 (stereo not given) | 1020 s
Cc1cc(C)c2c(N3CCSCC3)nc(C(=O)NCc3ccccn3)nc2n1 | 567 s
CC(C)CC(=O)Nc1ccc(OCc2cc(C(=O)NC3CC3)no2)cc1 | 747 s
CCCN1C(=O)COc2ccc(-c3csc(NC(=O)c4ccc(Cl)cc4)n3)cc21 | 1140 s
O=C(Nc1nccs1)c1ccc(Br)cc1F | 783 s
CC(C)Cn1c(=O)c(C(=O)NCc2ccccc2F)nc2cccnc21 | 868 s
CCCCOc1ccc(NC(=O)Nc2ccc3c(c2)CN(C(=O)CC)CC3)cc1 | 861 s
CNC(=O)c1noc([C@@H]2CC(F)(F)CN2C(=O)CCC2CCCC2)n1 | 848 s
CCc1ccccc1N1C(=O)CN(S(=O)(=O)CC)CC1(C)C(=O)NCc1ccccc1 (stereo not given) | 860 s
COc1ccccc1NC(=O)N1CCN(c2ccc(-c3noc(C)n3)cn2)CC1 | 724 s
COc1cccc(N2CCN(C(=O)C3CC(=O)N(c4ccc5oc(C)nc5c4)C3)CC2)c1 (stereo not given) | 752 s
COc1ccc(-c2nc(-c3ccc4c(c3)oc(=O)n4C)no2)c(C)c1 | 1100 s
Fc1cccc(CN2CCc3nc(N4CCN(c5ncccn5)CC4)ncc3C2)c1 | 633 s
CCCC(=O)Nc1ccc(OCc2cc(C(=O)NC3CCCC3)no2)cc1 | 854 s
CC(Oc1cccc2ccccc12)c1nc2c3ccccc3ncn2n1 (stereo not given) | 1090 s
CC1CCCN(CCCNC(=O)c2nnc(-c3ccc(S(=O)(=O)N4CCOCC4)cc3)o2)C1 (stereo not given) | 634 s
CCc1nc2cccnc2n1CCN1CCN(C(=O)Nc2ccc(C)c(Cl)c2)CC1 | 742 s
Cc1nn(-c2ccc(F)cc2)c2sc(C(=O)NCCc3ccco3)cc12 | 1060 s
O=C(c1ccccc1Cl)N(CCc1ccccc1)Cc1ccccn1 | 790 s
c1ccc(C2CNCc3ccccc32)cc1 (stereo not given) | 698 s
COc1ccc(OC)c(NC(=O)C(=O)NCC2CCCO2)c1 (stereo not given) | 807 s
O=C(Nc1ccc(Br)cc1F)NC1CCN(c2ccc(F)cc2)C1=O (stereo not given) | 937 s
Cc1cccc(S(=O)(=O)N2CCC(c3nc(C(=O)N4CCCC4)c(C)o3)CC2)c1 | 902 s

SMILES | RP-LC retention time
CC(C)Cn1cc(CCNS(=O)(=O)c2ccccc2Cl)c2cccnc21 | 922 s
CNC(=O)[C@@H]1CN(S(=O)(=O)C(C)C)C[C@H]1c1n[nH]c(C)n1 | 570 s
COc1ccc(S(=O)(=O)N2CCC(c3noc(C4CC4)n3)C2)cc1 (stereo not given) | 847 s
CC1CCCN(CC2CCN(C(=O)Nc3ccc(F)cc3)CC2)C1 (stereo not given) | 608 s
COc1cccc(NC(=O)C2CCCN2S(=O)(=O)c2cc3c(cc2C)NC(=O)CO3)c1 (stereo not given) | 722 s
CCc1nn2c(CNC(=O)C3CCCO3)c(-c3ccccc3)nc2s1 (stereo not given) | 765 s
CCOC(=O)c1ccc(N2C(=O)[C@@H]3Cc4ccccc4CN3C2=O)cc1 | 970 s
CCOc1ccc2ncc(C#N)c(Nc3cc(OC)c(OC)c(OC)c3)c2c1 | 607 s
O=C(NCc1cccnc1)c1ccc2ccnc(N3CCN(C(=O)c4ccco4)CC3)c2c1 | 563 s
COCCNc1c(-c2ccccc2)nc2sc(C(=O)N3CCCC3)c(C)n12 | 922 s
CCNC(=O)c1cc(C)nc2ccc(C(C)C)cc12 | 697 s
O=C([C@H]1C[C@@H](F)CN1S(=O)(=O)c1cccc(Cl)c1)N1CCOCC1 | 717 s
Cc1c(-c2noc(-c3ccc(F)cc3)n2)nnn1-c1ccc(F)cc1 | 1060 s
COc1ccc(-c2noc(-c3cccnc3N3CCN(Cc4ccccc4)CC3)n2)cc1 | 760 s
Cc1cc(NS(=O)(=O)c2cc3n(c2)CCN(C(C)C)C3=O)ccc1F | 1320 s
COc1ccc(NC(=O)NCCc2ccsc2)cc1 | 729 s
Cc1sc(NC(=O)c2ccco2)nc1-c1ccc2c(c1)NC(=O)CO2 | 770 s
Cc1ccc(S(=O)(=O)N2CCCC2)cc1-c1nnc(-c2ccccc2Cl)o1 | 1070 s
Cc1c(C(=O)NC2CC2)cnn1-c1ccc(-c2nc(C(C)C)no2)cn1 | 849 s
O=C(Nc1ccc(OC2CCNCC2)nc1)C1(c2ccccc2)CC1 | 646 s
COc1ccc(-c2nnc(-c3ccc(-n4ccnc4)nc3)o2)cc1F | 642 s
